Data reported in patent US8198085B2, “Somatic cells for use in cell therapy” (Core Dynamics Limited, priority 2005, dated 2012).
“And” between values parts separate entries of the source, which are not always exact repeats. Equal values may be shown once.

Tests used:
macrophages = assay: Membrane integrity (SYBR14/PI) of macrophage units after freeze thawing and freeze drying; type: cell-based; conditions: for cell survival (membrane integrity): freeze-dried, 0.5M Trehalose
Excerpt: Macrophage units were supplied by Professor Danon, Israel blood services, Tel-Hashomer, Israel. In the following experiments all buffy coats and/or macrophage units referred to were manipulated using the method and system for cultivating macrophages described in U.S. Pat. No. 6,146,890 which is incorporated herein by reference in its entirety, whereby hypo-osmotic shock is used to enhance the cells' differentiation into macrophages. Such manipulated cells were reported not to maintain viability after a conventional freezing process therefore their shelf life is very short, limiting their applications.
A part of the buffy coat was separated in order to produce mononuclear cells which include the monocyte/macrophage layer. The blood was separated on a Ficoll-Paque gradient for 30 minutes at 1000 g, afterwards the mononuclear layer was drawn out and washed twice in Phosphate Buffered Saline (PBS) (Calcium and Magnesium free, Bet Haemek, Israel) for 10 minutes at 200 g. The pellet was then resuspended with 3 ml of culture medium (RPMI 1640 with glutamine, 10% fetal calf serum and 1% antibiotic, all supplied by Bet Haemek, Israel). The rest of the buffy coat was left untouched.
Whole buffy coat or mononuclear cells in culture medium were incubated for one hour with different concentrations of Trehalose (0.1, 0.3, 0.5 and 1M). Incubation was done at 37° C., 5% CO2 humidified incubator.
Buffy coat samples and MNC samples were frozen by using the MTG-516 freezing apparatus (IMT, Israel) at a cooling rate of 5.1° C./min. Samples were rotated during freezing at 56 rounds per minute. After freezing, all samples were plunged into liquid nitrogen. Thawing was done at 37° C. in a water bath. Lyophilization was done by putting the frozen samples in a commercial lyophilizer (Labconco, USA) with a condenser temperature of −80° C. After drying, the cells were rehydrated with ultra pure water at 37° C. in order to regain their original volume (2.5 ml). […]

[1] = tested on: UCB derived MNC (mature lymphocytes, CD3); assay: CD3 expression by FACS after lyophilization and re-hydration; type: cell-based, human; conditions: 0.1M trehalose
Protocol: Sample's volume was 2.5 ml and samples were frozen and then lyophilized as described above. After being in the lyophilizer for 72 h, the samples were taken out and re-hydrated with 2.4 ml of DDW at 37° C. After re-hydration samples were assayed for CD3 using FACS (fluorescent-activated cell sorter) in accordance with the method described in Hulling et al. The Journal of Immunology 2003, 171: 4824-4829.

UCB derived MNC = assay: Cell proliferation assay based on thymidine incorporation; parameters: species or system human; conditions: cells lyophilized at ×10 EGCG (1.89 mg/ml) compared with ×2.5 EGCG (0.47 mg/ml); 48 hour incubation; FIG. 3
Protocol: Sample's volume was 2.5 ml and samples were frozen and then lyophilized as described above. After being in the lyophilizer for 72 h, the samples were taken out and re-hydrated with 2.4 ml of DDW at 37° C. After re-hydration samples were assayed for CD3 using FACS (fluorescent-activated cell sorter) in accordance with the method described in Hulling et al. The Journal of Immunology 2003, 171: 4824-4829. In addition, a cell proliferation assay was performed. In brief, the hydrated cells were incubated for 48 hour after which a proliferation assay based on thymidine incorporation was carried out (Promega, USA). The results of the proliferation assay are depicted in FIG. 3, wherein the proliferation index of the cells is depicted as a function of their number at initial plating.

[2] = tested on: mononuclear cells (MNC) derived from umbilical cord blood (UCB); assay: Membrane integrity (SYBR14/PI live/dead stain) of UCB derived MNC after freeze thawing or freeze drying; type: cell-based, human; conditions: for Membrane integrity (%): 0.1M trehalose in PBS
Protocol: In the following experiments umbilical cord blood (UCB) was received from “Sheba” Medical Center. The blood was separated on ficoll-paque gradient. 3 ml of Histopaque 1077 was put in a 15 ml plastic test tube. Above it 3 ml of UCB was put and the samples were centrifuged for 30 minutes at 1000 g. After spinning was finished the mononuclear layer was taken out and PBS was added up to 10 ml total volume. The samples were centrifuged again for 10 minutes at 200 g or 250 g., after which, the supernatant was discarded and another step of washing was performed (again, 10 ml PBS was added and samples were centrifuged for 10 minutes at 250 g). At the end of this step a freezing solution (as detailed in each experiment) was added to the cells pellet. The volume of the freezing solution varied depending on the desired cell concentration (concentrations may range for example from 1 to 10×10^6 cells/ml) or volume. Unless otherwise mentioned, a 2.5 ml cell suspension was transferred into a 16 mm glass tube that was then frozen using a multi-gradient directional freezing system (MTG-516 by IMT, Israel), operated essentially as described in WO03/020874.
Unless otherwise stated, the directional freezing system temperatures were set to: 5° C. to −10° C. to −40° C. to −70° C. Seeding was performed before the samples entered the −10° C. temperature. The velocity at which the samples were pushed through the channels of the freezing machine was set to 0.2 mm/sec, resulting in a cooling rate of 5.1° C./min. During freezing the samples were rotated at 60 rounds per minute (RPM). After completion of the freezing process, samples were put in a liquid-nitrogen (LN) tank until they were either thawed or transferred into a lyophilizer.
Lyophilization was performed by taking samples out of the LN tank and putting them in a commercial lyophilizer near the condenser (Labconco, USA), at condenser temperature of −80° C. Samples were held in the lyophilizer for 3 days. After 3 days of lyophilization samples were taken out and rehydrated with 2.4 ml of double distilled water (DDW) at 37° C.
Viability was assessed using the live/dead fluorescent stain SYBR14/PI (Propidium Iodide) or SYTO/PI (both from Molecular Probes, USA) for membrane integrity. These stains are nucleic acid stains, SYBR14 and SYTO are membrane permeable molecules and PI can enter the cell only if the membrane is damaged. Where so specified, the assay used was trypan blue (TB).

SMILES	cell survival (membrane integrity) (macrophages; second experiment, FIG. 6C)	cell survival (membrane integrity) (macrophages; without Ficoll-Paque separation, FIG. 6B)	membrane integrity (macrophages; frozen-thawed with 0.5M trehalose, whole macrophage units, FIG. 6C)	CD3 (%) ([1]; Lyophilized with 0.47 mg/ml EGCG)	CD3 (%) ([1]; Lyophilized with 1.89 mg/ml EGCG)	proliferation index (UCB derived MNC)	membrane integrity ([2]; 0.1M trehalose with 0.945 or 1.89 mg/ml EGCG, lyophilized and rehydrated, FIG. 2B)	viability (EGCG dose response) ([2]; 0.4M Trehalose, 0.189, 0.47, 0.945 and 1.89 mg/ml EGCG, after freezing and thawing and after freeze drying and re-hydration (exception 0.945 mg/ml after freeze-drying))	Membrane integrity (%) ([2]; Fresh with 0.47 mg/ml EGCG)	Membrane integrity (%) ([2]; Lyophilized with 0.47 mg/ml EGCG, re-hydrated)	percentage of cells that presented an intact membrane ([2]; after freeze drying with 1.89 mg/ml EGCG, 0.4M Trehalose in PBS, FIG. 2A)
OC[C@H]1O[C@H](O[C@H]2O[C@H](CO)[C@@H](O)[C@H](O)[C@H]2O)[C@H](O)[C@@H](O)[C@@H]1O [trehalose, Trehalose]	55.35±2.9%	91.86±4.2%	72.03±2.8%	–	–	–	–	–	–	–	–
O=C(O[C@@H]1Cc2c(O)cc(O)cc2O[C@@H]1c1cc(O)c(O)c(O)c1)c1cc(O)c(O)c(O)c1 [EGCG, Epigallocatechin gallate]	–	–	–	80%	81% and 83% and 82% and 78%	higher proliferation index	very high	increased with increasing EGCG concentration	97.36 ± 2.2%	55.1 ± 8.5% and 59.8 ± 1.4%	about 90%
